In ChEMBL document CHEMBL1146773, “Synthesis of dammarane-type triterpenoids with anti-inflammatory activity in vivo” (2004):

What was measured:
Type in all cases: functional
[1] = test system: Mus musculus; assay: In vivo anti-inflammatory activity determined by inhibition of oxazolone-induced allergic contact dermatitis (ACD) in mouse up on tropical application; parameters: concentration or dose not given beside the values
[2] = test system: Sus scrofa; assay: In vivo antiinflammatory activity of 130 uM concentration of compound was determined by inhibition of oxazolone-induced allergic contact dermatitis (ACD) in pig up on tropical application
[3] = test system: Mus musculus; assay: In vivo antiinflammatory activity of 0.4 uM concentration of compound was determined by inhibition of oxazolone-induced allergic contact dermatitis (ACD) in mouse up on tropical application
[4] = test system: Sus scrofa; assay: In vivo antiinflammatory activity of 40 uM concentration of compound was determined by inhibition of oxazolone-induced allergic contact dermatitis (ACD) in pig up on tropical application
[5] = test system: Mus musculus; assay: In vivo antiinflammatory activity of 4 uM concentration of compound was determined by inhibition of oxazolone-induced allergic contact dermatitis (ACD) in mouse up on tropical application
[6] = test system: Mus musculus; assay: In vivo antiinflammatory activity of 40 uM concentration of compound was determined by inhibition of oxazolone-induced allergic contact dermatitis (ACD) in mouse up on tropical application
[7] = test system: Mus musculus; assay: In vivo antiinflammatory activity of 0.04 uM concentration of compound was determined by inhibition of oxazolone-induced allergic contact dermatitis (ACD) in mouse up on tropical application
[8] = test system: Mus musculus; assay: In vivo antiinflammatory activity of compound was determined by inhibition of oxazolone-induced allergic contact dermatitis (ACD) in mouse up on tropical application
[9] = test system: Sus scrofa; assay: In vivo antiinflammatory activity of 400 uM concentration of compound was determined by inhibition of oxazolone-induced allergic contact dermatitis (ACD) in pig up on tropical application

SMILES	Inhibition [1] [%]	further results
CC(=O)[C@H]1CC[C@]2(C)[C@@H]1CC[C@@H]1[C@@]3(C)CC[C@H](O)C(C)(C)[C@@H]3CC[C@]12C	12	–
CC(NCCc1ccc(S(N)(=O)=O)cc1)[C@H]1CC[C@]2(C)[C@@H]1CC[C@H]1[C@H]2CC[C@H]2C(C)(C)[C@@H](O)CC[C@]12C (stereo not given in full)	16	–
CC(NCCc1ccccc1-n1ccnc1)[C@H]1CC[C@]2(C)[C@@H]1CC[C@H]1[C@H]2CC[C@H]2C(C)(C)[C@@H](O)CC[C@]12C (stereo not given in full)	13	–
CC(NCc1nc2ccccc2[nH]1)[C@H]1CC[C@]2(C)[C@@H]1CC[C@H]1[C@H]2CC[C@H]2C(C)(C)[C@@H](O)CC[C@]12C (stereo not given in full)	27	–
CC(C)CCC(=O)N[C@@H](C)[C@H]1CC[C@]2(C)[C@@H]1CC[C@H]1[C@H]2CC[C@H]2C(C)(C)[C@@H](O)CC[C@]12C	33	–
C[C@H](NC(=O)/C=C/c1ccccc1)[C@H]1CC[C@]2(C)[C@@H]1CC[C@H]1[C@H]2CC[C@H]2C(C)(C)[C@@H](O)CC[C@]12C	11	–
C=C(CCc1ccccc1)[C@H]1CC[C@]2(C)[C@@H]1CC[C@H]1[C@H]2CC[C@H]2C(C)(C)[C@@H](O)CC[C@]12C	36	–
C=C(C/C=C/C(C)(C)O)[C@@H]1CC[C@]2(C)[C@@H]1CC[C@@H]1[C@@]3(C)CC[C@H](O)C(C)(C)[C@@H]3CC[C@]12C	–	Inhibition [2]: 43%; Inhibition [3]: 6%; Inhibition [4]: 28%; Inhibition [5]: 37%; Inhibition [6]: 65%
CCCCNC(C)[C@H]1CC[C@]2(C)[C@@H]1CC[C@H]1[C@H]2CC[C@H]2C(C)(C)[C@@H](O)CC[C@]12C (stereo in doubt; 4aA)	30	–
CCCCNC(C)[C@H]1CC[C@]2(C)[C@@H]1CC[C@H]1[C@H]2CC[C@H]2C(C)(C)[C@@H](O)CC[C@]12C (stereo in doubt; 4aB)	28	–
CC(NCc1ccccc1)[C@H]1CC[C@]2(C)[C@@H]1CC[C@H]1[C@H]2CC[C@H]2C(C)(C)[C@@H](O)CC[C@]12C (stereo in doubt; 4bA)	28	–
CC(NCc1ccccc1)[C@H]1CC[C@]2(C)[C@@H]1CC[C@H]1[C@H]2CC[C@H]2C(C)(C)[C@@H](O)CC[C@]12C (stereo in doubt; 4bB)	15	–
CC(NCC(=O)OC(C)(C)C)[C@H]1CC[C@]2(C)[C@@H]1CC[C@H]1[C@H]2CC[C@H]2C(C)(C)[C@@H](O)CC[C@]12C (stereo in doubt; 4dA)	31	–
CC(NCC(=O)OC(C)(C)C)[C@H]1CC[C@]2(C)[C@@H]1CC[C@H]1[C@H]2CC[C@H]2C(C)(C)[C@@H](O)CC[C@]12C (stereo in doubt; 4dB)	21	–
C[C@H](N)[C@H]1CC[C@]2(C)[C@@H]1CC[C@H]1[C@H]2CC[C@H]2C(C)(C)[C@@H](O)CC[C@]12C (stereo in doubt; 5A)	38	–
C[C@H](N)[C@H]1CC[C@]2(C)[C@@H]1CC[C@H]1[C@H]2CC[C@H]2C(C)(C)[C@@H](O)CC[C@]12C (stereo in doubt; 5B)	41	–
CC1(C)[C@@H](O)CC[C@]2(C)[C@H]3CC[C@@H]4[C@@H](C(O)CCc5ccccc5)CC[C@@]4(C)[C@@H]3CC[C@@H]12 (stereo in doubt; 11A)	12	–
CC1(C)[C@@H](O)CC[C@]2(C)[C@H]3CC[C@@H]4[C@@H](C(O)CCc5ccccc5)CC[C@@]4(C)[C@@H]3CC[C@@H]12 (stereo in doubt; 11B)	14	–
CC1(C)[C@@H](O)CC[C@]2(C)[C@H]3CC[C@@H]4[C@@H](C(CCc5ccccc5)NCc5ccccc5)CC[C@@]4(C)[C@@H]3CC[C@@H]12 (stereo in doubt; 12A)	22	–
CC1(C)[C@@H](O)CC[C@]2(C)[C@H]3CC[C@@H]4[C@@H](C(CCc5ccccc5)NCc5ccccc5)CC[C@@]4(C)[C@@H]3CC[C@@H]12 (stereo in doubt; 12B)	15	–
CC1(C)[C@@H](O)CC[C@]2(C)[C@H]3CC[C@@H]4[C@@H](C(N)CCc5ccccc5)CC[C@@]4(C)[C@@H]3CC[C@@H]12 (stereo in doubt; 13A)	30	–
CC1(C)[C@@H](O)CC[C@]2(C)[C@H]3CC[C@@H]4[C@@H](C(N)CCc5ccccc5)CC[C@@]4(C)[C@@H]3CC[C@@H]12 (stereo in doubt; 13B)	6	–
CC(CCc1ccccc1)[C@H]1CC[C@]2(C)[C@@H]1CC[C@H]1[C@H]2CC[C@H]2C(C)(C)[C@@H](O)CC[C@]12C (stereo in doubt; 15A)	30	–
CC(CCc1ccccc1)[C@H]1CC[C@]2(C)[C@@H]1CC[C@H]1[C@H]2CC[C@H]2C(C)(C)[C@@H](O)CC[C@]12C (stereo in doubt; 15B)	29	–
C[C@@H]1C[C@H]2[C@@H]3CCC4=CC(=O)C=C[C@]4(C)[C@@]3(F)[C@@H](O)C[C@]2(C)[C@@]1(O)C(=O)CO [DEXAMETHASONE]	–	Inhibition [7]: 16%; Inhibition [8]: 42%; Inhibition [2]: 35%; Inhibition [3]: 41%; Inhibition [4]: 20%; Inhibition [9]: 32%; Inhibition [6]: 35%
